Test results: patent publication US10376502B2, “Alkylated imino sugars exhibiting glucosidase inhibition and their method of use” (Baruch S. Blumberg Institute, priority 2012, dated 2019)

Test system: their target viruses
Assay: not given
Conditions: against their target viruses; cited from earlier work

| Structure (SMILES) | concentrations to achieve EC50 values in tissue culture |
| --- | --- |
| CCCC(=O)O[C@H]1CN2CC[C@H](O)[C@@H]2[C@@H](O)[C@@H]1O [Cellgosovir] | near millimolar |
| CCCCN1C[C@H](O)[C@@H](O)[C@H](O)[C@H]1CO [NBDNJ, N-butyl-DNJ] | near millimolar |

Test system: BVDV
Assay: BVDV single cycle virus yield reduction assay with plaque titration
Format: cell-based, BVDV (NADL strain)
Conditions: Bovine viral diarrhea virus isolates and strains; MDBK cells, MOI 0.5, 22 hours post infection; compound 0.16 μM to 100 μM
Description: Cells and viruses: BVDV free MDBK cells (CCL 22) were obtained from the American Type Culture Collection and propagated in DMEMIF12 essential medium supplemented with penicillin (500 U/ml), streptomycin (500 U/ml), and 10% heat inactivated horse serum (Invitrogen). Cells were maintained in a humidified incubator at 37° C. with 5% C02. BVDV (NADL strain). For infections, virus inoculum was added in complete medium and adsorbed for 1 hour at 37‘C’, the inoculum was then removed, the cells washed once with medium and fresh medium containing compounds added. Virus stocks were prepared by freeze thawing the infected cells and culture supernatant three times followed by centrifugation at 1,000 g for 5 min., Stock titers were determined, and stocks were aliquoted and stored at −80° C. WNV was obtained from a eDNA clone of a human 2002 isolate from Texas; virus obtained from BHK cells electroporated with the in vitro synthesized RNA from this eDNA clone was passaged in Vero cells before use in antiviral assays. Dengue virus (DV) serotype 2 was a New Guinea C virus that had been passaged 28 times in suckling mouse brain, twice in Vero cells, and once in C6/36 mosquito cells.
BVDV antiviral and plaque assays: To evaluate antiviral activity against BVDV, a single cycle virus yield reduction assay was performed in the presence of from 0.16 μM to 100 μM through 5-fold dilution. Specifically, 2×10^5 MDBK cells/well were plated in 24 well plates. Twenty four hours later, the cells were infected with BVDV at multiplicity of infection (MOI) of 0.5 PFU/cell in 100 uL complete media. After adsorption for 1 hour at 37° C., the inoculum was removed, and cells were washed with media before media containing vehicle or from 0.16 μM to 100 μM through 5-fold dilution of test compound was added. At 22 hours post infection, both cells and media were collected and freeze-thawed three times before the virus was tittered. For BVDV virus, titer determination, 10^−2, 10^−3, 10^−4 dilutions of virus were inoculated onto MDBK cells as described previously. After absorption and washing the cells were overlaid with medium containing methylcellulose or soft agar and incubated at 37° C. for 3 days or until plaques were visible. Plaques were counted directly under the microscope or after staining with crystal violet in 70% methanol for 15 minutes.

| Structure (SMILES) | EC50 [µM] | EC90 [µM] |
| --- | --- | --- |
| CC1CCCCC1N(CCCCCCN1C[C@H](O)[C@@H](O)[C@H](O)[C@H]1CO)C(=O)OC(C)(C)C (some centres unmarked) [Entry 1] | 0.4 | 3.5 |
| CC1CCCCC1NCCCCCCN1C[C@H](O)[C@@H](O)[C@H](O)[C@H]1CO (some centres unmarked) [Entry 2] | 100 | – |
| CC(C)(C)C(=O)N(CCCCCCN1C[C@H](O)[C@@H](O)[C@H](O)[C@H]1CO)C1CCCCC1 [Entry 3] | 0.2 | 13 |
| CC(=O)N(CCCCCCN1C[C@H](O)[C@@H](O)[C@H](O)[C@H]1CO)c1cc(F)ccc1F [Entry 4] | 5 | – |
| CC(=O)N(CCCCCCN1C[C@H](O)[C@@H](O)[C@H](O)[C@H]1CO)c1ccc(F)cc1F [Entry 5] | 6 | 67 |
| CC(C)(C)C(=O)N(CCCCCCN1C[C@H](O)[C@@H](O)[C@H](O)[C@H]1CO)c1cc(F)ccc1F [Entry 6] | 0.4 | 18 |
| CC(C)(C)C(=O)N(CCCCCCN1C[C@H](O)[C@@H](O)[C@H](O)[C@H]1CO)c1ccc(F)cc1F [Entry 7] | 0.25 | 45 |
| CC(C)C(=O)N(CCCCCCN1C[C@H](O)[C@@H](O)[C@H](O)[C@H]1CO)C1CCCCC1 [Entry 8] | 0.45 | 25 |
| CC(C)(C)CC(=O)N(CCCCCCN1C[C@H](O)[C@@H](O)[C@H](O)[C@H]1CO)C1CCCCC1 [Entry 9] | 0.18 | 4 |
| CC(C)(C)C(=O)N(CCCCCCN1C[C@H](O)[C@@H](O)[C@H](O)[C@H]1CO)C1CC1 [Entry 10] | 3.75 | – |
| CC(C)(C)C(=O)N(CCCCCCN1C[C@H](O)[C@@H](O)[C@H](O)[C@H]1CO)C1CCC1 [Entry 11] | 0.8 | – |
| CC(C)(C)C(=O)N(CCCCCCN1C[C@H](O)[C@@H](O)[C@H](O)[C@H]1CO)C1CCCC1 [Entry 12] | 0.85 | 32 |
| CC(C)(C)C(=O)N(CCCCCCN1C[C@H](O)[C@@H](O)[C@H](O)[C@H]1CO)C1CCCCCC1 [Entry 13] | 0.4 | 9 |
| CC(C)(C)C(=O)N(CCCCCCN1[C@H](CO)[C@@H](O)[C@H](O)[C@H]1CO)C1CCCCC1 [Entry 14] | 21 | – |
| CC(C)(C)C(=O)Nc1cccc(CCCN2C[C@H](O)[C@@H](O)[C@H](O)[C@H]2CO)c1 [Entry 15] | 2.4 | – |
| CC(C)(C)C(=O)Nc1ccc(CCCN2C[C@H](O)[C@@H](O)[C@H](O)[C@H]2CO)cc1 [Entry 16] | > 100 | – |
| CC(C)(C)S(=O)(=O)N(CCCCCCN1C[C@H](O)[C@@H](O)[C@H](O)[C@H]1CO)C1CCCCC1 [Entry 17] | 0.31 | 50 |
| O=S(=O)(c1ccccc1)N(CCCCCCN1C[C@H](O)[C@@H](O)[C@H](O)[C@H]1CO)C1CCCCC1 [Entry 18] | 0.5 | 18 |
| CC(C)(C)N[S+]([O-])N(CCCCCCN1C[C@H](O)[C@@H](O)[C@H](O)[C@H]1CO)C1CCCCC1 (some centres unmarked) [Entry 19] | 0.3 | 25 |
| O=C(c1ccccc1)N(CCCCCCN1C[C@H](O)[C@@H](O)[C@H](O)[C@H]1CO)C1CCCCC1 [Entry 20] | 0.32 | 11 |
